Reference: patent US11690828B2, “Treatment of CNS diseases with sGC stimulators” (Cyclerion Therapeutics, Inc., priority 2016, dated 2023)

How the values were obtained:
[1] = test system: cGMP; experiment: Compound-induced cGMP in mouse brain; format: in vivo
Description: Protocol. Mice (n=9-10 per experimental condition) were dosed P.O. with vehicle (1% hydroxypropyl methyl cellulose, 0.2% Tween80, 0.5% methyl cellulose), P.O. with 10 mg/Kg of Compound I-2. Thirty minutes after dosing, under isoflurane anesthesia, each mouse was decapitated and its brain was removed and was placed into an ice-cold petri dish containing slushy dissection solution (saturated with 95% O2·5% CO2). Using an ice-cold spatula, the brain was transferred to mouse brain matrix with coronal spacing for slicing at 1 mm intervals, as schematized in the FIGURE below (not to scale, just a scheme). • ?
The sliced brain was transferred back into petri dish containing slushy dissection solution with IBMX 0.5 mM (saturated with 95% O2·5% CO2). The dorsal striatum is dissected first, followed by the hippocampus second, followed by the medial prefrontal cortex third, and lastly, the cerebellum fourth. After each region was dissected the “chunk” of tissue was immediately placed into an eppendorf which had been placed on dry ice for the previous 30 minutes. Small pieces of tissue froze very fast, within 10 seconds approximately. After all regions were placed in an eppendorf, eppendorfs were snap frozen by immersion into liquid nitrogen. The tissue samples were stored at −80 C. cGMP levels in brain were determined by LC/MS. Brain samples were homogenized in an aqueous buffer consisting of 80:20 (V/V %) water:acetic acid using an ultrasonicator probe. Brain homogenates containing sGC compounds and or cGMP were extracted from brain tissue by protein precipitation with an organic solvent containing internal standards (IS) followed by filtration and phospholipid removal using a Phenomenex® Phree™ phospholipid removal plate. Samples were analyzed using liquid chromatography (LC) with tandem mass spectrometric detection (MS/MS) using electrospray ionization. The standard curve concentrations used for quantitation of cGMP and or sGC compound(s) ranged from 0.2 to 400 ng/mL. Protein quantification of brain samples was determined using BCA protein assay kit.

[2] = test system: Healthy rats; experiment: Healthy rats - paw pressure test; format: in vivo, rat; details: Compound I-2 p.o. 10 mg/kg; 120 minutes after treatment
Description: Paw Pressure Test. Static mechanical hyperalgesia is measured. This test requires the application of an increasing pressure on the hind paws between a flat surface and a blunt pointer. To evaluate the analgesic action of a compound, one hind paw of the animal was inflamed by an injection or injured by ligation, while the other hind paw was not injured or inflamed. The apparatus exerted a steadily increasing force on the hind paws. The reaction threshold was determined as the pressure (g) required to elicit paw withdrawal and/or vocalization. The animals were gently handled by the experimenter and static mechanical hyperalgesia were assessed two times for both hind paws.
(§1) Testing: 120 minutes after treatment. N=4/model/test. Results are expressed for each group as a percentage of activity calculated from the mean value of the vehicle-treated animals and compared to naïve animals, control paw, or cut-off value, depending on the test.

[3] = test system: rats; experiment: Brennan model - electronic Von Frey test; format: in vivo, rat; details: Compound I-2 p.o. 10 mg/kg; 120 minutes after treatment
Excerpt: Brennan Model. Surgery: Surgery was done under gas anesthesia (2.5% isoflurane/3 L/min). For all rats, the plantar aspect of the left hind paw was exposed and a 1 cm longitudinal incision was made using a surgical blade, through the skin and fascia of the plantar aspect of the foot, starting 0.5 cm from the proximal edge of the heel and extending toward the toes. The plantaris muscle was elevated and incised longitudinally whereas the insertions remained intact. After hemostasis with gentle pressure, the skin was stitched up with two sutures. After surgery, animals recovered in their cages.
Electronic Von Frey Test. Tactile allodynia was assessed using the electronic Von Frey test 24 h after surgery. The test requires the application of an increasing pressure onto the plantar aspect of the hind paws. The apparatus exerted a steady force on the hind paws. Reaction thresholds were determined as the pressure (g) required to elicit paw withdrawal. Each reaction threshold measurement was repeated three times for both hind paws with intervals of approximately 2 to 3 mins.
as §1

[4] = test system: cGMP; experiment: Dose-response compound-induced cGMP in mouse brain (cerebrum); format: in vivo; details: 30 minutes after dosing
Description: Protocol. Experimental Day 1: Fast mice overnight with ad libitum access to water. Experimental Day 2: Mice (n=10 per experimental condition) were dosed P.O. with vehicle (1% hydroxypropyl methyl cellulose, 0.2% Tween80, 0.5% methyl cellulose), 3 or 10 mg/Kg of Compound I-2 prepared in vehicle. Thirty minutes after dosing, under isoflurane anesthesia, each mouse was decapitated and its brain was removed. The cerebrum was separated from each brain and placed in separate 15 ml falcon tubes and flash froze by immersion into liquid nitrogen. The tissue samples were stored at −80 C. cGMP levels in brain were determined by LC/MS. Brain samples were homogenized in an aqueous buffer consisting of 80:20 (V/V %) water:acetic acid using an ultrasonicator probe. Brain homogenates containing sGC compounds and or cGMP were extracted from brain tissue by protein precipitation with an organic solvent containing internal standards (IS) followed by filtration and phospholipid removal using a Phenomenex® Phree™ phospholipid removal plate. Samples were analyzed using liquid chromatography (LC) with tandem mass spectrometric detection (MS/MS) using electrospray ionization. The standard curve concentrations used for quantitation of cGMP and or sGC compound(s) ranged from 0.2 to 400 ng/mL. Protein quantification of brain samples was determined using BCA protein assay kit

Fc1ccccc1Cn1nc(-c2nc(C(F)(F)F)n[nH]2)c2cccnc21 [Compound I-2]
mPFC: nM cGMP/μg protein ([1]; mouse cortex, 10 mg/Kg P.O., 30 minutes after dosing, vehicle 0.075): 0.124 nM cGMP/μg protein | Hippocampus: nM cGMP/μg protein ([1]; mouse, 10 mg/Kg P.O., 30 minutes after dosing, vehicle 0.033): 0.072 nM cGMP/μg protein | Striatum: nM cGMP/μg protein ([1]; mouse, 10 mg/Kg P.O., 30 minutes after dosing, vehicle 0.062): 0.104 nM cGMP/μg protein | Cerebellum: nM cGMP/μg protein ([1]; mouse, 10 mg/Kg P.O., 30 minutes after dosing, vehicle 0.364): 0.681 nM cGMP/μg protein | cGMP in the cerebellum versus vehicle ([1]; mouse, acute 10 mg/Kg P.O.): significant increase | cGMP in the cortex versus vehicle ([1]; mouse, acute 10 mg/Kg P.O.): significant increase | cGMP in the hippocampus versus vehicle ([1]; mouse, acute 10 mg/Kg P.O.): significant increase | % of activity vs. vehicle, healthy rats paw pressure test [2]: −10% | % of activity vs. vehicle, Brennan model electronic Von Frey test [3]: 16% | cGMP in mouse brain as compared to vehicle dosed animals ([4]; acute 3 mg/Kg P.O.): increases | cGMP in mouse brain as compared to vehicle dosed animals ([4]; acute 10 mg/Kg P.O.): increases
